Assay results from US20120196899A1, “METHODS AND PRODUCTS FOR TREATING INFLAMMATION” (Rock Creek Pharmaceuticals, Inc., priority 2010, published 2012).
“And” between values parts separate entries of the source, which are not always exact repeats. Equal values may be shown once. Read-outs that look alike come from different tables or passages of the source.

Assay: Plasma pharmacokinetics after oral multi-dose anatabine polacrilex
Type: in vivo, Sprague-Dawley rats
Settings: for Anatabine Concentration in rat plasma: dose 2 mg/kg; for Avg. Conc. of anatabine in plasma: dose group 2, female; for concentration at 30 min / concentration at 60 min / concentration at 235 min / concentration at 270 min / concentration at 300 min / concentration at 475 min / concentration at 540 min / concentration at 600 min / concentration at 720 min / Tmax / half-life: Sprague-Dawley, rat, plasma; for concentration at 30 min / concentration at 60 min / concentration at 235 min / concentration at 270 min / concentration at 300 min / concentration at 475 min / concentration at 540 min / concentration at 600 min / concentration at 720 min: oral; for Tmax / half-life: po; for half-life: mean
Description: This study consisted of two groups of 8 animals each, 4 males and 4 females.
Two formulations were prepared; one for each of the two treatment groups. The test compound was formulated for each treatment group just prior to the first dose administration and constantly stirred until dosing was completed (Table 37). Four aliquots of each dose level formulation were collected and stored at −80° C.
The animals were weighed prior to dosing and received three doses p.o. of test compound at a volume of 5 mL/kg. Blood was collected via the venus plexus (retro-orbital) into tubes containing (K2) EDTA. No more than 0.5 mL was collected per time point.
Plasma was separated as per package instructions for MICROTAINER® brand collection tubes (3 minutes, 2000×g). Plasma was decanted into microfuge tubes and stored at −80° C. Remaining test compound was placed at −80° C.
Sample preparation. Plasma samples were treated with three volumes of methanol containing internal standard at 1 μM (R,S)-Antabine-2,4,5,6-d4), incubated 10 min at 4° C., and centrifuged. The amount of the test agent in the supernatant was determined by LC/MS/MS.
Analysis. Samples were analyzed by LC/MS/MS using an Agilent 6410 mass spectrometer coupled with an Agilent 1200 high pressure liquid chromatography (HPLC) and a CTC PAL chilled autosampler, all controlled by MassHunter software (Agilent). After separation on a Hydrophilic interaction liquid chromatography (HILIC) HPLC column (Sepax) using an acetonitrile-ammonium acetate/acetic acid gradient system, peaks were analyzed by mass spectrometry (MS) using ESI ionization in multiple reaction monitoring (MRM) mode. MassHunter software was used to calculate the concentration of the test compounds in samples from the peak area using the appropriate calibration curves.
Calibration samples. Calibration curves were determined in rat plasma. Calibration samples were prepared by diluting a 50× stock solution of the test compound in PBS with blank matrix to the appropriate concentration and these samples were prepared as described above in the sample preparation.
Data Analysis. Descriptive statistics were calculated for all pharmacokinetic parameters. Elimination half-lives (t1/2) were calculated by linear regression of logarithmically transformed plasma concentration data for each period between doses and following the final dose.
Total areas under the plasma concentration curves (AUC) and under the first moment curves (AUMC) were calculated using linear trapezoidal summation across all concentration time points as well as for intervals between each dose administration and following the final dose. […] Mean absorption times (MAT) were calculated according to the following relation: […]
where MRT represents the mean residence time. This was calculated from the mean residence times.
The statistical comparison of parameters between male and female animals was made using a two-tailed, unpaired, t-test with a 95 percent confidence interval. Repeated-measures analysis of variance (ANOVA) was used for multiple comparisons of Cp, max involving successive determinations on the same group of animals.

[1] = females, 6.0 mg/kg BW group, anatabine polacrilex p.o.

## C1=CCC(c2cccnc2)NC1 (racemic) [Anatabine, 1,2,3,6-tetrahydro-[2,3′]bipyridinyl]
female, 270 min, individual animals 4A-4D
  Anatabine Concentration in rat plasma: 324 ng/mL and 350 ng/mL
female, 300 min, individual animals 4A-4D
  Anatabine Concentration in rat plasma: 216 ng/mL and 97 ng/mL and 191 ng/mL and 414 ng/mL
female, 475 min, individual animals 4A-4D
  Anatabine Concentration in rat plasma: 219 ng/mL and 178 ng/mL and 179 ng/mL
female, 540 min, individual animals 4A-4D
  Anatabine Concentration in rat plasma: 231 ng/mL and 314 ng/mL and 369 ng/mL and 474 ng/mL
female, 600 min, individual animals 4A-4D
  Anatabine Concentration in rat plasma: 197 ng/mL and 207 ng/mL and 480 ng/mL and 288 ng/mL
female, 720 min, individual animals 4A-4D
  Anatabine Concentration in rat plasma: 165 ng/mL and 217 ng/mL
male, 235 min, individual animals 3A-3D
  Anatabine Concentration in rat plasma: 46 ng/mL and 63 ng/mL and 105 ng/mL
male, 270 min, individual animals 3A-3D
  Anatabine Concentration in rat plasma: 364 ng/mL and 309 ng/mL
male, 300 min, individual animals 3A-3D
  Anatabine Concentration in rat plasma: 232 ng/mL and 202 ng/mL
male, 475 min, individual animals 3A-3D
  Anatabine Concentration in rat plasma: 97 ng/mL
male, 540 min, individual animals 3A-3D
  Anatabine Concentration in rat plasma: 290 ng/mL and 173 ng/mL
male, 600 min, individual animals 3A-3D
  Anatabine Concentration in rat plasma: 173 ng/mL and 130 ng/mL and 150 ng/mL
male, 720 min, individual animals 3A-3D
  Anatabine Concentration in rat plasma: 401 ng/mL and 137 ng/mL and 71 ng/mL
30 min
  Avg. Conc. of anatabine in plasma: 160 ng/mL
60 min
  Avg. Conc. of anatabine in plasma: 129 ng/mL
235 min
  Avg. Conc. of anatabine in plasma: 44 ng/mL
270 min
  Avg. Conc. of anatabine in plasma: 316 ng/mL
300 min
  Avg. Conc. of anatabine in plasma: 234 ng/mL
540 min
  Avg. Conc. of anatabine in plasma: 386 ng/mL
600 min
  Avg. Conc. of anatabine in plasma: 325 ng/mL
720 min
  Avg. Conc. of anatabine in plasma: 208 ng/mL
female, 0.2 mg/kg BW, Avg. Conc. of anatabine in plasma, dose group 0.2, female, 30 min
  concentration at 30 min: 37 ng/mL
female, 0.2 mg/kg BW, Avg. Conc. of anatabine in plasma, dose group 0.2, female, 60 min
  concentration at 60 min: 35 ng/mL
female, 0.2 mg/kg BW, Avg. Conc. of anatabine in plasma, dose group 0.2, female, 235 min
  concentration at 235 min: 12 ng/mL
female, 0.2 mg/kg BW, Avg. Conc. of anatabine in plasma, dose group 0.2, female, 270 min
  concentration at 270 min: 26 ng/mL
female, 0.2 mg/kg BW, Avg. Conc. of anatabine in plasma, dose group 0.2, female, 300 min
  concentration at 300 min: 34 ng/mL
female, 0.2 mg/kg BW, Avg. Conc. of anatabine in plasma, dose group 0.2, female, 475 min
  concentration at 475 min: 8 ng/mL
female, 0.2 mg/kg BW, Avg. Conc. of anatabine in plasma, dose group 0.2, female, 540 min
  concentration at 540 min: 34 ng/mL
female, 0.2 mg/kg BW, Avg. Conc. of anatabine in plasma, dose group 0.2, female, 600 min
  concentration at 600 min: 28 ng/mL
female, 0.2 mg/kg BW, Avg. Conc. of anatabine in plasma, dose group 0.2, female, 720 min
  concentration at 720 min: 12 ng/mL
female, 0.2 mg/kg, Anatabine Concentration in rat plasma, 30 min, individual animals 2A-2D
  concentration at 30 min: 34 ng/mL
female, 0.2 mg/kg, Anatabine Concentration in rat plasma, 60 min, individual animals 2A-2D
  concentration at 60 min: 29 ng/mL
female, 0.2 mg/kg, Anatabine Concentration in rat plasma, 475 min, individual animals 2A-2D
  concentration at 475 min: 7 ng/mL
female, 0.2 mg/kg, Anatabine Concentration in rat plasma, 540 min, individual animals 2A-2D
  concentration at 540 min: 24 ng/mL
female, 2 mg/kg, Anatabine Concentration in rat plasma, 270 min, individual animals 4A-4D
  concentration at 270 min: 237 ng/mL
female, 2 mg/kg, Anatabine Concentration in rat plasma, 475 min, individual animals 4A-4D
  concentration at 475 min: 144 ng/mL
female, 2 mg/kg, Anatabine Concentration in rat plasma, 720 min, individual animals 4A-4D
  concentration at 720 min: 186 ng/mL
female, 0.6 mg/kg, female rats, after dose 1, mean, read-out: Tmax(1)
  Tmax: 0.63 h
female, 0.6 mg/kg, female rats, after dose 2, mean, read-out: Tmax(2)
  Tmax: 0.88 h
female, 0.6 mg/kg, female rats, after dose 3, mean, read-out: Tmax(3)
  Tmax: 1.25 h
female, 0.6 mg/kg, female rats, after first dose, read-out: t1/2,0→4 (converted)
  half-life: 2.06 h
female, 0.6 mg/kg, female rats, read-out: t1/2, terminal (converted)
  half-life: 1.8 h
female, 6 mg/kg, female rats, after dose 1, mean, read-out: Tmax(1)
  Tmax: 0.5 h
female, 6 mg/kg, female rats, after dose 2, mean, read-out: Tmax(2)
  Tmax: 0.63 h
female, 6 mg/kg, female rats, after dose 3, mean, read-out: Tmax(3)
  Tmax: 1.25 h
female, 6 mg/kg, female rats, after first dose, read-out: t1/2,0→4 (converted)
  half-life: 1.82 h
female, 6 mg/kg, female rats, read-out: t1/2, terminal (converted)
  half-life: 3.99 h
female, both treatment groups combined, female rats, read-out: t1/2,0→4 (converted)
  half-life: 1.94 h
[1]
  Cp, max, initial value (increase from): 259.8 ± 35.4 ng/mL
  Cp, max, later value (increase to): 374.8 ± 122.9 ng/mL
  Cp, min, first minimum: 51.5 ± 26.0 ng/mL
females, 6.0 mg/kg BW group, anatabine polacrilex p.o., 6 mg/kg
  Cp, min(2), second minimum: 180 ± 31 ng/mL and 180.0 ± 30.7 ng/mL
male, 0.2 mg/kg BW, Avg. Conc. of anatabine in plasma, dose group 0.2, male, 300 min
  concentration at 300 min: 26 ng/mL
male, 0.2 mg/kg BW, Avg. Conc. of anatabine in plasma, dose group 0.2, male, 475 min
  concentration at 475 min: 18 ng/mL
male, 0.2 mg/kg BW, Avg. Conc. of anatabine in plasma, dose group 0.2, male, 540 min
  concentration at 540 min: 38 ng/mL
male, 0.2 mg/kg BW, Avg. Conc. of anatabine in plasma, dose group 0.2, male, 600 min
  concentration at 600 min: 29 ng/mL
male, 0.2 mg/kg BW, Avg. Conc. of anatabine in plasma, dose group 0.2, male, 720 min
  concentration at 720 min: 12 ng/mL
male, 0.2 mg/kg, Anatabine Concentration in rat plasma, 30 min, individual animals 1A-1D
  concentration at 30 min: 29 ng/mL
male, 0.2 mg/kg, Anatabine Concentration in rat plasma, 60 min, individual animals 1A-1D
  concentration at 60 min: 32 ng/mL
male, 0.2 mg/kg, Anatabine Concentration in rat plasma, 235 min, individual animals 1A-1D
  concentration at 235 min: 11 ng/mL
male, 0.2 mg/kg, Anatabine Concentration in rat plasma, 270 min, individual animals 1A-1D
  concentration at 270 min: 35 ng/mL
male, 0.2 mg/kg, Anatabine Concentration in rat plasma, 300 min, individual animals 1A-1D
  concentration at 300 min: 22 ng/mL
male, 0.2 mg/kg, Avg. Conc. of anatabine in plasma, dose group 0.2, male, 30 min
  concentration at 30 min: 33 ng/mL
male, 0.2 mg/kg, Avg. Conc. of anatabine in plasma, dose group 0.2, male, 60 min
  concentration at 60 min: 30 ng/mL
male, 0.2 mg/kg, Avg. Conc. of anatabine in plasma, dose group 0.2, male, 235 min
  concentration at 235 min: 11 ng/mL
male, 0.2 mg/kg, Avg. Conc. of anatabine in plasma, dose group 0.2, male, 270 min
  concentration at 270 min: 26 ng/mL
male, 2 mg/kg BW, Avg. Conc. of anatabine in plasma, dose group 2, male, 30 min
  concentration at 30 min: 243 ng/mL
male, 2 mg/kg BW, Avg. Conc. of anatabine in plasma, dose group 2, male, 235 min
  concentration at 235 min: 72 ng/mL
male, 2 mg/kg BW, Avg. Conc. of anatabine in plasma, dose group 2, male, 270 min
  concentration at 270 min: 303 ng/mL
male, 2 mg/kg BW, Avg. Conc. of anatabine in plasma, dose group 2, male, 300 min
  concentration at 300 min: 183 ng/mL
male, 2 mg/kg BW, Avg. Conc. of anatabine in plasma, dose group 2, male, 475 min
  concentration at 475 min: 97 ng/mL
male, 2 mg/kg BW, Avg. Conc. of anatabine in plasma, dose group 2, male, 540 min
  concentration at 540 min: 226 ng/mL
male, 2 mg/kg BW, Avg. Conc. of anatabine in plasma, dose group 2, male, 600 min
  concentration at 600 min: 151 ng/mL
male, 2 mg/kg BW, Avg. Conc. of anatabine in plasma, dose group 2, male, 720 min
  concentration at 720 min: 203 ng/mL
male, 2 mg/kg, Anatabine Concentration in rat plasma, 475 min, individual animals 3A-3D
  concentration at 475 min: 79 ng/mL
male, 2 mg/kg, Anatabine Concentration in rat plasma, 540 min, individual animals 3A-3D
  concentration at 540 min: 214 ng/mL
male, 0.6 mg/kg, male rats, after dose 1, mean, read-out: Tmax(1)
  Tmax: 0.75 h
male, 0.6 mg/kg, male rats, after dose 2, mean, read-out: Tmax(2)
  Tmax: 0.63 h
male, 0.6 mg/kg, male rats, after dose 3, mean, read-out: Tmax(3)
  Tmax: 1 h
male, 0.6 mg/kg, male rats, after first dose, read-out: t1/2,0→4 (converted)
  half-life: 2.05 h
male, 0.6 mg/kg, male rats, read-out: t1/2, terminal (converted)
  half-life: 1.78 h
male, 6 mg/kg, male rats, after dose 1, mean, read-out: Tmax(1)
  Tmax: 0.63 h
male, 6 mg/kg, male rats, after dose 2, mean, read-out: Tmax(2)
  Tmax: 0.63 h
male, 6 mg/kg, male rats, after dose 3, mean, read-out: Tmax(3)
  Tmax: 2 h
male, 6 mg/kg, male rats, after first dose, read-out: t1/2,0→4 (converted)
  half-life: 1.76 h
male, 6 mg/kg, male rats, read-out: t1/2, terminal (converted)
  half-life: 5.07 h
male, both treatment groups combined, male rats, read-out: t1/2,0→4 (converted)
  half-life: 1.92 h
